Test results as given in patent US7595158B2, “Bcl2L12 polypeptide activators and inhibitors” (Dana-Farber Cancer Institute, Inc., priority 2003, dated 2009).

Experiments:
Type in all cases: cell-based, human
Bcl2L12 polypeptide = assay: Endogenous Bcl2L12 polypeptide expression in U87MG cells (Western blot, immunofluorescence); conditions: 48 hours post transfection, anti-L12-1 Western blot
Experimental: Down-regulation of Bcl2L12 polypeptide expression via RNA interference was assessed in U87MG cells. Briefly, U87MG cells were co-transfected (1:10 ratio) with 0.5 μg of vector encoding GFP and 5 μg of either pSHAG-Control, pSHAG-Bcl2L12-A, pSHAG-Bcl2L12-B, or pSHAG-Bcl2L12-A+-B. Once transfected, the cells expressing GFP were sorted out by FACS analysis. […] The FACS-sorted cells were assessed for Bcl2L12 polypeptide expression. […] The FACS-sorted cells also were seeded in 24-well plates at a density of 1×10^5 cells, grown in 10% FBS-DMEM, and counted every day for three days.
In another experiment, total cellular lysates of U87MG cells transfected with control siRNA, Bcl2L12-targeting siRNA #4, or Bcl2L12-targeting siRNA #5 were harvested 48 hours post transfection and subjected to western blot analysis using the anti-L12-1 antibody (1 μg/mL).
The following experiments were performed to characterize the anti-Bcl2L12 polypeptide antibodies. U87MG cells stably expressing control or Bcl2L12-targeting shRNA (shL12-1) were subjected to deconvolution immunofluorescence microscopy using the anti-L12-2 antiserum. Cells were counterstained with DAPI. […]
The potential anti-oncogenic impact of Bcl2L12 polypeptide knockdown was assessed in the U87MG human glioma model system. […] Bcl2L12 polypeptide expression was analyzed by western blotting using the anti-L12-1 antibody. […]

LNZ308 cells = assay: STS-induced DNA fragmentation (sub-G1, FACS) in LNZ308 cells; conditions: LNZ308, 2.0 μM STS; control siRNA about 30 percent
Experimental: (§1) LNZ308 and LN443 glioma cell lines transfected with control siRNA, Bcl2L12-targeting siRNA #4, or Bcl2L12-targeting siRNA #5 were treated with 0, 0.2, 0.5, 1.0, or 2.0 μM STS. DNA-fragmentation was assessed by quantifying sub-G1 peaks using FACS analysis. siRNA-mediated knockdown of Bcl2L12 polypeptide sensitized the glioma cell lines to STS-induced apoptosis. […] The maximum percent DNA fragmentation was about 30 percent, 45 percent, and 55 percent in LNZ308 cells transfected with control siRNA, siRNA #4, or siRNA #5, respectively, and treated with 2.0 μM STS (FIG. 10B). […] The maximum percent DNA fragmentation was about 40 percent, 60 percent, and 75 percent in LN443 cells transfected with control siRNA, siRNA #4, or siRNA #5, respectively, and treated with 2.0 μM STS (FIG. 10C).
LNZ308 cells co-transfected with pcDNA3-GFP and either pSHAG-A or pSHAG-B were treated with 0.1 or 0.5 μM of STS for 24 hours, and DNA fragmentation was assessed.

LN443 cells = assay: STS-induced DNA fragmentation (sub-G1, FACS) in LN443 cells; conditions: LN443, 2.0 μM STS; control siRNA about 40 percent
Experimental: as §1

[1] = system: caspases 2, 3/7, 6, 8, and 9; assay: Caspase activity profile with fluorogenic peptide substrates in LNZ308 cells; conditions: LNZ308, STS 24 hours
Experimental: LNZ308 cells were transfected with control or siRNA oligonucleotide #5, and treated with STS for 24 hours. Subsequently, caspase activity was profiled using caspase-specific fluorogenic peptide substrates assessing the activity status of caspases 2, 3/7, 6, 8, and 9.

pro-caspase-7 = assay: Anti-L12-2 immunoprecipitation from U87MG cells, Western blot for caspase-7; conditions: anti-L12-2 immunoprecipitates
Experimental: To define further the molecular actions of Bcl2L12 polypeptides, the physical interactions with key post-mitochondrial apoptosis signaling molecules were assessed. Anti-L12-2 immunoprecipitates from lysates of LNZ308, U87MG, and 293T cells were subjected to western blot analysis for procaspases 7 and 3 and cytochrome c. Briefly, cells were lysed in IP buffer. Cleared supernatants were incubated with prebleed serum (8 μl) coupled to Protein A-sepharose 4B beads (Sigma) for 1 hour and subsequently with anti-L12-2 antiserum (8 μl) for 1 to 2 hours. For western blot analyses, polypeptides were separated by 4-12% SDS-PAGE, transferred to Hybond PVDF membranes (Amersham), blocked with 5% milk in phosphate-buffered saline with 0.05% Tween 20 (PBS/Tween) for 1 hour, washed with PBS/Tween and incubated with anti-cytochrome c antibodies (0.5 μg/ml; BD Pharmingen), anti-caspase-7 antibodies (0.5 μg/ml, BD Pharmingen), or anti-caspase-3 anitbodies (0.25 μg/ml, BD Transduction Laboratories) in PBS/Tween 20 with 5% milk. The blots were washed with PBS/Tween and developed with goat anti-rabbit IgG (1:10,000) or with goat anti-mouse antibodies (1:10,000) (Pierce) in 5% milk PBS/Tween. […] 1/40 of the lysate used for the immunoprecipitation was loaded to quantify the amount of co-immunoprecipitated caspase-7. […]

Row | Substance | Bcl2L12 polypeptide levels (Bcl2L12 polypeptide) | maximum percent DNA fragmentation (LNZ308 cells) | maximum percent DNA fragmentation (LN443 cells) | caspase activity [1] | co-immunoprecipated pro-caspase-7 (pro-caspase-7)
1 | siRNA #4: Bcl2L12-targeting siRNA oligonucleotide 5′-AAGCUGGUCCGCCUGUCCU-3′; SEQ ID NO:6 (chemistry not given here) | significant reduction | ~45% | ~60% | – | –
2 | siRNA #5: Bcl2L12-targeting siRNA oligonucleotide 5′-UGGUGGAGCUGUUCUGUAG-3′; SEQ ID NO:7 (chemistry not given here) | significant reduction | ~55% | ~75% | enhanced caspase activity | significant decrease
